The record followed here is patent US8513232B2, “Substituted spirocyclic piperidine derivatives as histamine-3 (H3) receptor ligands” (Cephalon, Inc., priority 2008, dated 2013).

What is called Ki is a dissociation constant, usually derived from enzyme kinetics or from competition with a known ligand. By melting point is commonly meant the temperature of the solid-liquid transition.

Data set [1] deals with T1, rat histamine H3 receptor (Rattus norvegicus, UniProt Q9QYN8).
T1 construct: encoding the entire 445-amino-acid rat histamine H3 receptor; expressed in transfected cells; membrane preparation
T1 sequence (Q9QYN8 whole entry): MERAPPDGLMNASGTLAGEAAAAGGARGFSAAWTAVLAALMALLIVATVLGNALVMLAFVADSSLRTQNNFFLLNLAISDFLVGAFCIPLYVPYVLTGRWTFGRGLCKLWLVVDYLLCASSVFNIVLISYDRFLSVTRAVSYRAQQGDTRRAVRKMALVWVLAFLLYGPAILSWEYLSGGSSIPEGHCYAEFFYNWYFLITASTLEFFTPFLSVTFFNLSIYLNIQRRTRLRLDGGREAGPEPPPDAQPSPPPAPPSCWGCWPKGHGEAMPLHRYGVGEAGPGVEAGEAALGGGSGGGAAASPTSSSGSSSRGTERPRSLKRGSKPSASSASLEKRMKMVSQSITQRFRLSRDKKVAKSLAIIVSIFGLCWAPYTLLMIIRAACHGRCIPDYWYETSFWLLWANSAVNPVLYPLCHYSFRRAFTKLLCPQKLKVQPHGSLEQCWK
The experiment in a line: Rat H3 radioligand binding ([3H]-N-alpha-methylhistamine, SPA). The settings on record: Rat H3 binding, Table B, Examples 136-362; read-out: rat H3 binding Ki. The method in brief: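 Membranes from CHO-A3 cells stably expressing full-length rat H3 receptor (10 μg protein/well) incubated 4 h at room temperature, protected from light, with ~1 nM [3H]-N-alpha-methylhistamine and compound (0.01 nM-30 μM) in 50 mM Tris HCl pH 7.4, 5 mM MgCl2, 0.1% BSA. Binding read by SPA; 10 μM clobenpropit defined non-specific binding.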

Data set [2] deals with T2, human H3 receptor (Homo sapiens, UniProt Q9Y5N1).
T2 construct: expressed in transfected cells
T2 sequence (Q9Y5N1 whole entry): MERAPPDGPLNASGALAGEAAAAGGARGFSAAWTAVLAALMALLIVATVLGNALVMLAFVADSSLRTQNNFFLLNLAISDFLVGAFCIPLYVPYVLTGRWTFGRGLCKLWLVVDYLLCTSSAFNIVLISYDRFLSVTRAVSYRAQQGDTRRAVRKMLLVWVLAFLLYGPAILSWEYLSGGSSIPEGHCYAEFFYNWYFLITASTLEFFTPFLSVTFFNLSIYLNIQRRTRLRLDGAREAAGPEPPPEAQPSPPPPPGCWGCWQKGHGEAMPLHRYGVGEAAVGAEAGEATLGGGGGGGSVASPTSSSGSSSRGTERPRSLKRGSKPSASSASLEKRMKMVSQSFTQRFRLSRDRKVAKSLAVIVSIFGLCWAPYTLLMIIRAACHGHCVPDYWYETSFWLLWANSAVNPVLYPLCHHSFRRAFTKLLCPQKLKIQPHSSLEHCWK
Put plainly: Human H3 radioligand binding ([3H]-N-alpha-methylhistamine, SPA). The settings on record: Human H3 binding, Table B, Examples 136-362; read-out: hum H3 binding Ki. In short, it runs like this:
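SPA competition binding on membranes from CHO cells stably expressing human H3 receptor (10 μg protein/well) with ~1 nM [3H]-N-alpha-methylhistamine and compound at 0.01 nM-30 μM. Incubation 4 h at room temperature in 50 mM Tris-HCl pH 7.4, 5 mM MgCl2, 0.1% BSA; non-specific binding defined with 10 μM clobenpropit.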

`COCC(C)(C)NC(=O)c1ccc(-c2ccc3c(c2)COC2(CCN(C4CCC4)CC2)O3)cc1` [Example 284] showed a melting point of 138 to 140 °C. Further, the Ki in data set [1] was below 0.2 µM. In addition, in data set [2], the inhibition constant (Ki) was below 0.2 µM.

As to `CNC(=O)c1ccc(Nc2ccc3c(c2)COC2(CCN(C4CCC4)CC2)O3)cc1` [Example 285], the melting point was in the range of 206 to 208 °C. In addition, in data set [1], the Ki is below 0.2 µM. In addition, the Ki in data set [2] was below 0.2 µM.

With `O=C(Nc1ccc2c(c1)COC1(CCN(C3CCC3)CC1)O2)c1cnco1` [Example 286], the melting point lay in the range of 175 to 177 °C. In addition, the Ki in data set [1] is below 0.2 µM. For the same molecule, the Ki in data set [2] was below 0.2 µM.

As to `CN(C)C(=O)N1CCN(c2ccc3c(c2)COC2(CCN(C4CCC4)CC2)O3)CC1` [Example 287], the melting point was 153 to 155 °C. Also, the Ki in data set [1] was below 0.2 µM. For the same molecule, the Ki in data set [2] was below 0.2 µM.

As for `Clc1ccc(COc2ccc3c(c2)CCC2(CCN(C4CCC4)CC2)O3)cc1` [Example 288], the melting point is 115 to 116 °C. Besides, in data set [1], the Ki was below 0.2 µM. The Ki in data set [2] was below 0.2 µM.

On to `O=C(Nc1ccc2c(c1)CCC1(CCN(C3CCC3)CC1)O2)c1ccnnc1` [Example 289], for which the melting point is 213 to 215 °C. Also, the Ki in data set [1] is below 0.2 µM. For the same molecule, the Ki in data set [2] was below 0.2 µM.

Molecule `CC(=O)N(Cc1ccccc1)c1ccc2c(c1)COC1(CCN(C3CCC3)CC1)O2` [Example 290] had a melting point of 115 to 117 °C. For the same molecule, in data set [1], the inhibition constant (Ki) was below 0.2 µM. In addition, in data set [2], the Ki is below 0.2 µM.

With `O=C(Nc1ccc2c(c1)COC1(CCN(C3CCC3)CC1)O2)c1ccnc(F)c1` [Example 291], the melting point was in the range of 187 to 188 °C. For the same molecule, the Ki in data set [1] was below 0.2 µM. The inhibition constant (Ki) in data set [2] is below 0.2 µM.

`CNC(=O)c1cc(COc2ccc3c(c2)CCC2(CCN(C4CCC4)CC2)O3)ccn1` [Example 292] returned a melting point of 141 to 143 °C. Besides, the Ki in data set [1] was below 0.2 µM. For the same molecule, the Ki in data set [2] is below 0.2 µM.

`CN(C(=O)N1CCN(c2ccc3c(c2)COC2(CCN(C4CCC4)CC2)O3)CC1)c1ccccc1` [Example 293]: the melting point was in the range of 107 to 110 °C. Moreover, the Ki in data set [1] is below 0.2 µM. In addition, the inhibitory constant (Ki) in data set [2] is below 0.2 µM.

Molecule `O=C(NCC(F)(F)F)N1CCN(c2ccc3c(c2)COC2(CCN(C4CCC4)CC2)O3)CC1` [Example 295] displayed a melting point of 182.5 to 183.5 °C. For the same molecule, the Ki in data set [1] was below 0.2 µM. In data set [2], the Ki is below 0.2 µM.

`Cc1cc(C(=O)Nc2ccc3c(c2)COC2(CCN(C4CCC4)CC2)O3)cc(C)n1` [Example 296] yielded a melting point of 191 to 193 °C. For the same molecule, the Ki in data set [1] is below 0.2 µM. Besides, in data set [2], the Ki was below 0.2 µM.

Regarding `O=C(Nc1ccc2c(c1)COC1(CCN(C3CCC3)CC1)O2)c1ccncn1` [Example 297], the melting point fell in the range of 198 to 199 °C. Besides, in data set [1], the inhibition constant (Ki) is below 0.2 µM. Also, the Ki in data set [2] was below 0.2 µM.

The molecule `c1cc2c(cc1N1CCC(N3CCOCC3)CC1)COC1(CCN(C3CCC3)CC1)O2` [Example 298] displayed a melting point of 142.4 to 144.3 °C. Also, the Ki in data set [1] was below 0.2 µM. For the same molecule, in data set [2], the Ki is below 0.2 µM.

`O=S(=O)(N1CCN(c2ccc3c(c2)COC2(CCN(C4CCC4)CC2)O3)CC1)C(F)(F)F` [Example 299] yielded a melting point of 154.6 to 156.4 °C. In addition, the Ki in data set [1] was below 0.2 µM. Besides, in data set [2], the inhibitory constant (Ki) was below 0.2 µM.

Consider `CC(C)NC(=O)c1ccc(-c2ccc3c(c2)COC2(CCN(C4CCC4)CC2)O3)cc1` [Example 301], for which the melting point is 221 to 222 °C. For the same molecule, in data set [1], the inhibition constant Ki was below 0.2 µM. Further, the inhibitory constant (Ki) in data set [2] is below 0.2 µM.

For `CC(C)NC(=O)c1ccc(-c2ccc3c(c2)CCC2(CCN(C4CCC4)CC2)O3)cc1` [Example 302], the melting point lay within 191 to 192 °C. The Ki in data set [1] is below 0.2 µM. Further, the Ki in data set [2] is below 0.2 µM.

Regarding `COCCN(C)C(=O)c1ccc(-c2ccc3c(c2)CCC2(CCN(C4CCC4)CC2)O3)cc1` [Example 303], the melting point lay in the range of 225 to 227 °C. Besides, the Ki in data set [1] is below 0.2 µM. In addition, in data set [2], the Ki was below 0.2 µM.

`O=C(Nc1ccc2c(c1)COC1(CCN(C3CCC3)CC1)O2)c1cnccn1` [Example 304] had a melting point of 173 to 175 °C. For the same molecule, in data set [1], the Ki was below 0.2 µM. Further, in data set [2], the Ki is below 0.2 µM.

In the case of `c1ccc(CNc2ccc3c(c2)COC2(CCN(C4CCC4)CC2)O3)cc1` [Example 305], the melting point is 85 to 87 °C. For the same molecule, in data set [1], the inhibition constant (Ki) is below 0.2 µM. In data set [2], the Ki is below 0.2 µM.

`COCCN(C)C(=O)c1ccc(-c2ccc3c(c2)COC2(CCN(C4CCC4)CC2)O3)cc1` [Example 306] yielded a melting point of 232 to 234 °C. Further, in data set [1], the Ki is below 0.2 µM. For the same molecule, the Ki in data set [2] is below 0.2 µM.

`O=C(N1CCCC1)N1CCN(c2ccc3c(c2)COC2(CCN(C4CCC4)CC2)O3)CC1` [Example 307] displayed a melting point of 132 to 135 °C. Besides, in data set [1], the Ki is below 0.2 µM. The Ki in data set [2] is below 0.2 µM.

In turn, `Cc1nc(C)c(C(=O)Nc2ccc3c(c2)COC2(CCN(C4CCC4)CC2)O3)s1` [Example 308] showed a melting point of 174 to 175 °C. Besides, the inhibition constant Ki in data set [1] was below 0.2 µM. The Ki in data set [2] is below 0.2 µM.

`O=C(Nc1ccc2c(c1)COC1(CCN(C3CCC3)CC1)O2)c1ccnc(N2CCCC2)c1` [Example 309] gave a melting point of 234 to 236 °C. Further, in data set [1], the Ki was below 0.2 µM. Moreover, the Ki in data set [2] is below 0.2 µM.

The molecule `O=C(N1CCOCC1)N1CCN(c2ccc3c(c2)COC2(CCN(C4CCC4)CC2)O3)CC1` [Example 310] had a melting point of 174 to 176 °C. Besides, in data set [1], the Ki was below 0.2 µM. In data set [2], the inhibition constant Ki is below 0.2 µM.

In the case of `CC(C)OCCNC(=O)c1ccc(-c2ccc3c(c2)COC2(CCN(C4CCC4)CC2)O3)cc1` [Example 311], the melting point lay in the range of 155.5 to 157.3 °C. The Ki in data set [1] was below 0.2 µM. Besides, the inhibitory constant (Ki) in data set [2] was below 0.2 µM.

As to `CC(C)OCCNC(=O)c1ccc(-c2ccc3c(c2)CCC2(CCN(C4CCC4)CC2)O3)cc1` [Example 312], the melting point is 135 to 137 °C. In data set [1], the Ki is below 0.2 µM. Moreover, in data set [2], the Ki is below 0.2 µM.

Regarding `O=C(Nc1ccc2c(c1)COC1(CCN(C3CCC3)CC1)O2)c1ccnc(N2CCOCC2)c1` [Example 313], the melting point lay in the range of 205 to 207 °C. Also, the Ki in data set [1] was below 0.2 µM. For the same molecule, the Ki in data set [2] was below 0.2 µM.

For `CN(C)c1cc(C(=O)Nc2ccc3c(c2)COC2(CCN(C4CCC4)CC2)O3)ccn1` [Example 314], the melting point lay within 213 to 215 °C. In data set [1], the Ki is below 0.2 µM. In addition, the Ki in data set [2] is below 0.2 µM.

For the molecule `Cc1cc(C(=O)Nc2ccc3c(c2)COC2(CCN(C4CCC4)CC2)O3)ccn1` [Example 315], the melting point was 184 to 185 °C. Further, the Ki in data set [1] was below 0.2 µM. Further, the Ki in data set [2] is below 0.2 µM.

Molecule `O=C(Nc1ccc2c(c1)COC1(CCN(C3CCC3)CC1)O2)c1ccc2ncsc2c1` [Example 316] displayed a melting point of 232 to 234 °C. The inhibitory constant (Ki) in data set [1] was below 0.2 µM. In addition, the Ki in data set [2] was below 0.2 µM.

For the molecule `O=C(NC1CCN(c2ccc3c(c2)COC2(CCN(C4CCC4)CC2)O3)CC1)N1CCCC1` [Example 319], the melting point was in the range of 210.2 to 212.6 °C. Besides, the Ki in data set [1] was below 0.2 µM. The Ki in data set [2] was below 0.2 µM.

Molecule `CC(=O)N(Cc1cccnc1)c1ccc2c(c1)COC1(CCN(C3CCC3)CC1)O2` [Example 320] had a melting point of 57 to 59 °C. Besides, in data set [1], the Ki was below 0.2 µM. Besides, the Ki in data set [2] is below 0.2 µM.

Molecule `c1cncc(CNc2ccc3c(c2)COC2(CCN(C4CCC4)CC2)O3)c1` [Example 321] returned a melting point of 117 to 118 °C. In addition, the Ki in data set [1] is below 0.2 µM. Further, the inhibition constant Ki in data set [2] is below 0.2 µM.

In turn, `O=C(Cc1ccccn1)Nc1ccc2c(c1)COC1(CCN(C3CCC3)CC1)O2` [Example 322] displayed a melting point of 166 to 168 °C. Besides, the Ki in data set [1] was below 0.2 µM. Moreover, the inhibition constant (Ki) in data set [2] was below 0.2 µM.

Consider `CNc1cc(C(=O)Nc2ccc3c(c2)COC2(CCN(C4CCC4)CC2)O3)ccn1` [Example 323], for which the melting point is 207 to 208 °C. In addition, in data set [1], the Ki was below 0.2 µM. The Ki in data set [2] is below 0.2 µM.

As to `CC(C)C(=O)NC1CCN(c2ccc3c(c2)COC2(CCN(C4CCC4)CC2)O3)CC1` [Example 324], the melting point was in the range of 208.4 to 210.6 °C. Further, the Ki in data set [1] was below 0.2 µM. The Ki in data set [2] is below 0.2 µM.

`c1ncc(COc2ccc3c(c2)CCC2(CCN(C4CCC4)CC2)O3)o1` [Example 325]: the melting point was in the range of 45 to 47 °C. Moreover, the Ki in data set [1] was below 0.2 µM. Also, in data set [2], the Ki was below 0.2 µM.

`O=C(Nc1ccc2c(c1)COC1(CCN(C3CCC3)CC1)O2)c1ccc2[nH]cnc2c1` [Example 326] gave a melting point of 235 to 237 °C. Further, in data set [1], the Ki was below 0.2 µM. The Ki in data set [2] was below 0.2 µM.

Take `CC(=O)NC1CCN(c2ccc3c(c2)COC2(CCN(C4CCC4)CC2)O3)CC1` [Example 328]: the melting point lay within 190.8 to 192 °C. Further, the Ki in data set [1] is below 0.2 µM. The Ki in data set [2] is below 0.2 µM.

Consider `CN(C)C(=O)NC1CCN(c2ccc3c(c2)COC2(CCN(C4CCC4)CC2)O3)CC1` [Example 329], for which the melting point lay in the range of 193 to 195.2 °C. Besides, the Ki in data set [1] is below 0.2 µM. The Ki in data set [2] was below 0.2 µM.
